Test results as given in patent US20130165489A1, “Small Molecule Modulators of HIV-1 Capsid Stability and Methods Thereof” (The Trustees of the University of Pennsylvania, priority 2010, published 2013).
Entries after “also recorded” stand apart in the source; their conditions may differ.

Assays:
[1] = system: HIV-1 92BR030 (subtype B clinical isolate); assay: Anti-HIV efficacy in human PBMCs, isolate 92BR030; assay type: cell-based
Experimental: HIV human peripheral blood mononuclear cell (PBMC) assays were performed as described previously (Lanier et al., 2010, Antimicrob. Agents Chemother. 54:2901-09; Ptak et al., 2008, Antimicrob. Agents Chemother. 52:1302-17). Briefly, fresh PBMCs, seronegative for HIV and hepatitis B virus (HBV), were isolated from blood samples of the screened donors (Biological Specialty Corporation, Colmar, Pa.) by using lymphocyte separation medium (LSM; density, 1.078±0.002 g/ml; Cellgro; Mediatech, Inc.) by following the manufacturer's instructions. Cells were stimulated by incubation in 4 μg/mL phytohemagglutinin (PHA; Sigma) for 48 to 72 h. Mitogenic stimulation was maintained by the addition of 20 U/mL recombinant human interleukin-2 (rhIL-2; R&D Systems, Inc.) to the culture medium. PHA-stimulated PBMCs from at least two donors were pooled, diluted in fresh medium, and added to 96-well plates at 5×10^4 cells/well. Cells were infected (final multiplicity of infection [MOI] of ≅0.1) in the presence of 9 different concentrations of test compounds (triplicate wells/concentration) and incubated for 7 days. To determine the level of virus inhibition, cell-free supernatant samples were collected for analysis of reverse transcriptase activity (Buckheit Jr., et al., 1991, AIDS Res. Hum. Retroviruses 7:295-302). Following removal of supernatant samples, compound cytotoxicity was measured by the addition of 3-(4,5-dimethylthiazol-2-yl)-5-(3-carboxymethoxyphenyl)-2-(4-sulfophenyl)-2H-tetrazolium (MTS; CellTiter 96 reagent; Promega) by following the manufacturer's instructions.
79:6089-6101; Jagodzinski et al., 2000, J. Clin. Microbiol. 38:1247-49; Michael et al., 1999, J. Clin. Microbiol. 37:2557-63 and Vahey et al., 1999, J. Clin. Microbiol. 37:2533-37); HIV-1 Group M isolate 931N101 (Subtype C, CCR5-tropic) from Dr. Robert Bollinger and the UNAIDS Network for HIV Isolation and Characterization (Gao et al., 1994, AIDS Res. Hum. Retroviruses 10:1359-68); HIV-1 Group M isolate CMUO8 (Subtype E, CXCR4-tropic) from Dr. Kenrad Nelson and the UNAIDS Network for HIV Isolation and Characterization (Gao et al., 1994, AIDS Res. Hum. Retroviruses 10:1359-68); HIV-1 Group M isolate G3 (Subtype G, CCR5-tropic) from Alash'le Abimiku (Abimiku et al., 1994, Aids Res. Hum. Retrovir. 10:1581-83); HIV-1 Group 0 isolate BCF02 (CCR5-tropic) from Sentob Saragosti, Françoise Brun-Vézinet, and François Simon (Loussertajaka et al., 1995, J. Virol. 69:5640-49); and SIV isolate Mac251 from Dr. Ronald Desrosiers (Daniel et al., 1985, Science 228:1201-04).

[2] = system: HIV-1 92UG031 (subtype A clinical isolate); assay: Anti-HIV efficacy in human PBMCs, isolate 92UG031; assay type: cell-based
Experimental: (§1) HIV human peripheral blood mononuclear cell (PBMC) assays were performed as described previously (Lanier et al., 2010, Antimicrob. Agents Chemother. 54:2901-09; Ptak et al., 2008, Antimicrob. Agents Chemother. 52:1302-17). Briefly, fresh PBMCs, seronegative for HIV and hepatitis B virus (HBV), were isolated from blood samples of the screened donors (Biological Specialty Corporation, Colmar, Pa.) by using lymphocyte separation medium (LSM; density, 1.078±0.002 g/ml; Cellgro; Mediatech, Inc.) by following the manufacturer's instructions. Cells were stimulated by incubation in 4 μg/mL phytohemagglutinin (PHA; Sigma) for 48 to 72 h. Mitogenic stimulation was maintained by the addition of 20 U/mL recombinant human interleukin-2 (rhIL-2; R&D Systems, Inc.) to the culture medium. PHA-stimulated PBMCs from at least two donors were pooled, diluted in fresh medium, and added to 96-well plates at 5×10^4 cells/well. Cells were infected (final multiplicity of infection [MOI] of ≅0.1) in the presence of 9 different concentrations of test compounds (triplicate wells/concentration) and incubated for 7 days. […] Following removal of supernatant samples, compound cytotoxicity was measured by the addition of 3-(4,5-dimethylthiazol-2-yl)-5-(3-carboxymethoxyphenyl)-2-(4-sulfophenyl)-2H-tetrazolium (MTS; CellTiter 96 reagent; Promega) by following the manufacturer's instructions. […]

[3] = system: HIV-1 93IN101 (subtype C clinical isolate); assay: Anti-HIV efficacy in human PBMCs, isolate 93IN101; assay type: cell-based
Experimental: as §1

HIV-1 CA = HIV-1 CA (Human immunodeficiency virus type 1 group M subtype B, UniProt P12493); assay: In vitro CA assembly assay (turbidity); assay type: biochemical; details: CA 30 μM; compound 147 μM; turbidity at 350 nm
Experimental: The effect of compound CMPD-E on the assembly of HIV-1 CA was measured by monitoring turbidity at 350 nm using a modification of the method of Tian et al. (Tian et al., 2009, Bioorg. Med. Chem. Lett. 19:2162-67). Briefly, 1.0 μL of concentrated CMPD-E in 100% DMSO was added to a 74-μL aqueous solution (2 mL of 5 M NaCl mixed with 1 mL of 200 mM NaH2PO4, pH 8.0). To initiate the assembly reaction, 25 μL of purified CA protein (120 μM) was added. An identical reaction mixture was prepared, omitting the compound (i.e., DMSO only). Samples were allowed to equilibrate for 2 min prior to reading. Readings were taken at 350 nm every 10 s for 30 min. CA was used at a final concentration of 30 μM, and CMPD-E at a final concentration of 147 μM.

[4] = Human immunodeficiency virus 1, PBMC

O=C(O)c1ccc(-c2nc(-c3ccccc3)c(-c3ccccc3)[nH]2)cc1 [CMPD-E, 4-(4,5-diphenyl-1H-imidazol-2-yl)benzoic acid]
Antiviral index (TC50/IC50) ([1]; 92BR030, PBMC): >1.46
IC50 [1, 4]: 68.7 µM
inhibition of HIV-1 92BR030 replication in PBMCs ([1]; primary PBMCs): could inhibit
IC50 [2, 4]: 93.6 µM
Antiviral index (TC50/IC50) ([2]; PBMC): >1.07
IC50 [3, 4]: 48.4 µM
Antiviral index (TC50/IC50) ([3]; PBMC): >2.07
effect on assembly of HIV-1 CA in vitro (HIV-1 CA): prevents the assembly of the capsid; also recorded: prevented assembly of CA in vitro; also recorded: preventing the assembly of the capsid
